# Measurements published in publication PMC9489211, “Regulation of pulmonary surfactant by the adhesion GPCR GPR116/ADGRF5 requires a tethered agonist-mediated activation mechanism” (eLife, 2022).
# Where a SMILES comes first, the peptide text is derived from it. Where no end group is shown, it is not given here. [ ]: non-standard residue; d: D form. Nle = CCCC[C@H](N)C(=O)O
# What was measured:
# [1] = biological target: T1, full-length hGPR116 (HEK293 clone A6) (Homo sapiens, UniProt Q8IZF2); assay: Calcium transient assay, full-length hGPR116 stably expressed in HEK293 (clone A6); type: cell-based; conditions: calcium transients, hFL clone A6, Figure 3-figure supplement 2 / Figure 7A
# T1 construct: expressed in transfected cells
# T1 sequence (Q8IZF2 22-1346): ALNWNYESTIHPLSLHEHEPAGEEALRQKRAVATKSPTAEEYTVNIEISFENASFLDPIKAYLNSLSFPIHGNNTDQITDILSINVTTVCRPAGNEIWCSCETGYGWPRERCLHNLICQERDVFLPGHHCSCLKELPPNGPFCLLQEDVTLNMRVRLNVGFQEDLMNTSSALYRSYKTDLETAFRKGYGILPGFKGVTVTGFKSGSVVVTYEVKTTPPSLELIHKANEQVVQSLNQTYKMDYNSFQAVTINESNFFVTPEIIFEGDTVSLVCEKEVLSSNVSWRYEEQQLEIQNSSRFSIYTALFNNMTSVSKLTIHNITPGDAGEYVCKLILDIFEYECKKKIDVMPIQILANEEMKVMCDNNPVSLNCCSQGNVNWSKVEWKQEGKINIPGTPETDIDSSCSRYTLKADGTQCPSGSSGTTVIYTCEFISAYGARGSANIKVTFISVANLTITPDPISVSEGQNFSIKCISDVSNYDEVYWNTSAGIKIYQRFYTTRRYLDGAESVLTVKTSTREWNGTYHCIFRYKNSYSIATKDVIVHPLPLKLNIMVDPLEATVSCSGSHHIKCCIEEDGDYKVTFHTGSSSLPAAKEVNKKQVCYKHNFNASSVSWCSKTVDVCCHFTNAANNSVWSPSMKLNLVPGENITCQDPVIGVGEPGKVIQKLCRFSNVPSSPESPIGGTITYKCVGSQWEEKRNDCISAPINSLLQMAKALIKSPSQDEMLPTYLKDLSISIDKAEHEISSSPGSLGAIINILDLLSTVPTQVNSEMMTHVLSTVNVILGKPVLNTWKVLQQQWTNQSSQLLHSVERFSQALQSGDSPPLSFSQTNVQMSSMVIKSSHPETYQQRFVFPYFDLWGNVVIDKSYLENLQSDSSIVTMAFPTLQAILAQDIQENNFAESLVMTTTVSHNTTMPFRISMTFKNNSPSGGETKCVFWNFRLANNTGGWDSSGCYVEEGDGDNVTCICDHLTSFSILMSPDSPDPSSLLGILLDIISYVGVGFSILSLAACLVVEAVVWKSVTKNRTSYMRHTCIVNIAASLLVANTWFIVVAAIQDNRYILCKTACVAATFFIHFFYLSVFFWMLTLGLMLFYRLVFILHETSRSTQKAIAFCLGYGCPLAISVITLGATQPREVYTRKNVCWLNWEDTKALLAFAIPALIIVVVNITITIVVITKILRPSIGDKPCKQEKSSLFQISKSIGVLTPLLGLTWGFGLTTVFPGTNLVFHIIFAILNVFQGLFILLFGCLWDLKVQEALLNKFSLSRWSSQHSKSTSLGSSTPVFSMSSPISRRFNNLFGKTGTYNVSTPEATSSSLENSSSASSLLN
# Description: (§1) For some constructs, stable populations were generated by treating the cells with G418. After complete selection of resistant cells, these were used in assays. Stable HEK293 clones for full-length hGPR116 (clone A6) and mGPR116 (clone 3C) were described earlier ([Brown et al., 2017]).
# (§2) HEK293 cells were seeded in 384-well plates (Greiner, #781946) at 30,000 cells/well. Medium was removed the following day and cells were loaded for 2 hr at 37°C, 5% CO2 with 20 µl Calcium 6 loading buffer (Molecular Devices, Cat# R8191): 1× HBSS (Gibco, Cat# 14065.049) containing 20 mM HEPES (Gibco, Cat#15630) and 2.5 mM probenecid (Sigma, Cat# P8761). Plates were then transferred to a FDSS7000 fluorescence plate reader (HAMAMATSU, Japan) and Ca^2+ responses were measured in real time using a CCD camera with excitation 480 nm/emission 540 nm. Prior to stimulation, baseline measurements were recorded over 5 s (Fmin). For stimulation, 20 µl of test compounds prepared 2× in HBSS containing 20 mM HEPES were dispensed. Fluorescence was read over 1–1.5 min. Maximum fluorescence (Fmax) was determined and normalized to baseline. Data are reported as ∆F/F = (Fmax – Fmin)/Fmin. Adequate response of the endogenous M3R was verified for each transfection, using carbachol at 100 µM and following the same procedure as for the peptide activation.
# (§3) Concentration response curves were analyzed using GraphPad Prism 9.2.0. Potency was determined using a nonlinear regression model with variable slope, and statistical significance was determined using a one-way ANOVA followed by Dunnett’s multiple comparison test or a TTEST for comparison of two data sets (*p<0.05, **p<0.01, ***p<0.001, ****p<0.0001, ns, not significant).
# hCTFbax G1011K = biological target: T2, hCTFbax G1011K (Homo sapiens, UniProt Q8IZF2, G1009K); assay: Calcium transient assay, hCTFbax G1011K; type: cell-based; conditions: calcium transients, Figure 7C
# T2 construct: tethered peptide (993 - 1008); expressed in transfected cells
# T2 sequence (Q8IZF2 997-1346 G1009K): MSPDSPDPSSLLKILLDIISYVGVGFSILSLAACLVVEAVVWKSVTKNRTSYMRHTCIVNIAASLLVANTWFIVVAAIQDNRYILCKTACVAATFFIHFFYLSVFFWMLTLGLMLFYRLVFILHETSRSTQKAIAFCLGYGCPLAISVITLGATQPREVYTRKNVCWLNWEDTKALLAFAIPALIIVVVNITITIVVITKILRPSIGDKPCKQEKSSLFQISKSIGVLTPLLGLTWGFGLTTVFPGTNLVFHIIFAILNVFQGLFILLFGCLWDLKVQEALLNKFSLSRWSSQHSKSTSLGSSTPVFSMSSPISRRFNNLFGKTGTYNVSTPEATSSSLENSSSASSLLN
# Description: The hCTFbax construct was generated independently of the mCTFbax, using a strategy (Nt deletion) based on emerging knowledge and appropriate for the planned studies, although no difference in functionality is expected between the two approaches. The hCTFbax mBS chimera was derived from this construct by gene synthesis. Other mutants of the human GPR116 CTF or full-length constructs were generated by site-directed mutagenesis using PCR-based techniques.
# HEK293 cells were seeded in 384-well plates (Greiner, #781946) at 30,000 cells/well. […] Plates were then transferred to a FDSS7000 fluorescence plate reader (HAMAMATSU, Japan) and Ca^2+ responses were measured in real time using a CCD camera with excitation 480 nm/emission 540 nm. Prior to stimulation, baseline measurements were recorded over 5 s (Fmin). […] Fluorescence was read over 1–1.5 min. Maximum fluorescence (Fmax) was determined and normalized to baseline. […]
# as §3
# [2] = biological target: T3, full-length mGPR116 (HEK293 clone 3C) (Mus musculus, UniProt G5E8Q8); assay: Calcium transient assay, full-length mGPR116 stably expressed in HEK293 (clone 3C); type: cell-based; conditions: calcium transient assay, HEK293 clone 3C, Fig 3F
# T3 construct: expressed in transfected cells
# T3 sequence (G5E8Q8 22-1348): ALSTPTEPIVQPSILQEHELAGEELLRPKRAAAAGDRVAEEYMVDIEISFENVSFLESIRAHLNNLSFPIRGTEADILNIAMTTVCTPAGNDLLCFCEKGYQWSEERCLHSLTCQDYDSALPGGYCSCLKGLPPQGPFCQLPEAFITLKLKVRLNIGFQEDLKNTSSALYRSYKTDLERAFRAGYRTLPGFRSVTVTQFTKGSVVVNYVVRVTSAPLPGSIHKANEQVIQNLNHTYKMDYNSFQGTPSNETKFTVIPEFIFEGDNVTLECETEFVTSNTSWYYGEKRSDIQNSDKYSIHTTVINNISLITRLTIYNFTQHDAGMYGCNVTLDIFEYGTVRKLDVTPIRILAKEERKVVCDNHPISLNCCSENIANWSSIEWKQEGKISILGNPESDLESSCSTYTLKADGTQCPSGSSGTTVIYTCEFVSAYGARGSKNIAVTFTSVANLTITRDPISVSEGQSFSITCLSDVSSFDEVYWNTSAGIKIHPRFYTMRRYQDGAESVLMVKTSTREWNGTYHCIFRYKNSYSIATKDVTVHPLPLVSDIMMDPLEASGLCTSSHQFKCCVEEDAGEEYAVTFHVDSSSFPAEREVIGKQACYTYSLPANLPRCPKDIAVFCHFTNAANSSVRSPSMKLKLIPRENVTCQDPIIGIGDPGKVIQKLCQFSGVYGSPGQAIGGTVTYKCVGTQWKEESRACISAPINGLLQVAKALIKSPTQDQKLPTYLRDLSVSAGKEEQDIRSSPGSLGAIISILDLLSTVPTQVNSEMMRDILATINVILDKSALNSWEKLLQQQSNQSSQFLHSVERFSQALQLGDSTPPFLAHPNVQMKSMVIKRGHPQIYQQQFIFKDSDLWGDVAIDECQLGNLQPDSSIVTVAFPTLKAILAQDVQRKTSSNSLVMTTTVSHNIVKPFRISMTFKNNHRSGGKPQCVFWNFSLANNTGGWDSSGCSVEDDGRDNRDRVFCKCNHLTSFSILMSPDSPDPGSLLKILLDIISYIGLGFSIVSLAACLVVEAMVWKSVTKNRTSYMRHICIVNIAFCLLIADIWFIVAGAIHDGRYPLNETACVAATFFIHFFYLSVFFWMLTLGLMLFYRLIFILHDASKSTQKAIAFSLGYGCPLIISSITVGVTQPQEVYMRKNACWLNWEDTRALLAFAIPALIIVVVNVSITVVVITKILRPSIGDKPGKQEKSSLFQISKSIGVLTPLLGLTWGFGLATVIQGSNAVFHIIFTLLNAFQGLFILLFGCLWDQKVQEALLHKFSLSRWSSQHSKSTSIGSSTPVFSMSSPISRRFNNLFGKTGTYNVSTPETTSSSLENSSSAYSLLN
# Description: as §1, §2, §3
# [3] = test system: mouse GPR116 CTF (mCTF) single alanine mutants; assay: IP1 accumulation, mCTF single alanine mutants of the tethered agonist stimulated with exogenous GAP; type: cell-based; conditions: transiently transfected HEK293, Figure 3E
# Description: HEK293 cells were seeded in 12-well plates at a density of 1.5 × 10^5 cells per well and transiently transfected with plasmids expressing wild-type, wild-type mGPR116-FLAG, CTF-FLAG, or alanine mutants of CTF-FLAG. Then, 24 hr post transfection, media were removed and replaced with serum-free Modified Eagles Medium (MEM; Mediatech) containing 1 µCi/ml of 3H-myo-inositol (PerkinElmer Life Sciences). Also, 48 hr […], media were removed and replaced with serum-free media supplemented with 20 mM LiCl for 3 hr. For samples to be stimulated with GAPs, the peptides were added at the appropriate concentration when the media were replaced with that supplemented with LiCl. […] Columns were washed twice with distilled H2O, total inositol phosphates (IP) were eluted with 4.0 ml of 0.1 M formic acid and 1 M ammonium formate, and eluates containing accumulated inositol phosphates were counted in a liquid scintillation counter. Then, 50 μl of neutralized supernatant was counted in a liquid scintillation counter to measure total incorporated 3H-myo-inositol. Data are expressed as accumulated inositol phosphate over total incorporated 3H-myo-inositol. […]
# IP1 accumulation was measured using the manufacturer’s instructions (IP-One, Cisbio 62IPAPEC). […] Plates were read at 665 and 620 nm on an EnVision Xcite Multilabel reader (PerkinElmer, # 2104-0020). […]
# [4] = test system: mCTFbax Y1158A, R1160A, W1165A, L1166A, T1240A; assay: Calcium transient assay, alanine scan of ECLs in mCTFbax; type: cell-based, mouse; conditions: transiently transfected HEK293, Figure 4B
# Description: Human and mouse GPR116 full-length constructs (hFL and mFL, respectively) have been described earlier, as well as the mouse CTF constructs (mCTF) with N-terminal mCherry or FLAG ([Brown et al., 2017]). […] Mutants of these constructs have been generated by site-directed mutagenesis using PCR-based techniques.
# as §2
Compound,activation of the human full-length receptor (in words) [1],response of hCTFbax G1011K (in words) (hCTFbax G1011K),EC50 (uM) n=1 ([2]; independent experiment n=1 (mean of quadruplicate)) [µM],EC50 (uM) n=2 ([2]; independent experiment n=2 (mean of quadruplicate)) [µM],EC50 (uM) n=3 ([2]; independent experiment n=3 (mean of quadruplicate)) [µM],"activation of mCTF single alanine mutants, IP1 accumulation (in words) [3]",activation of mCTFbax ECL alanine mutants (in words) [4]
CCCC[C@H](NC(=O)[C@H](CC(C)C)NC(=O)[C@@H](NC(=O)[C@H](CO)NC(=O)[C@H](Cc1ccccc1)NC(=O)[C@H](CO)NC(=O)[C@@H]1CCCN1)[C@@H](C)CC)C(=O)N[C@@H](CO)C(=O)N1CCC[C@H]1C(=O)N[C@@H](CC(=O)O)C(=O)O [GAP10-Pro1] (H-PSFSIL[Nle]SPD-OH; N-terminus and C-terminus assumed),little to no effect,did not robustly respond,,,,,
TSFSILMSPDSPDP [GAP14],,,29.9,26.3,46.4,strongly activated the mutant receptors,unresponsive to GAP14-mediated activation
